The values that follow come from the NIST ThermoML archive (doi:10.1016/j.tca.2012.02.005).

SMILES strings stand for the structures. Numbers after ± are expanded uncertainties.

The data set is described as follows: activity coefficient (dimensionless); of the first substance listed, at infinite dilution; xn = mol fraction of the nth substance listed. To be noted: 298.15 K; 101 kPa; Liquid; Chromatography; x1 = 0.
With `NC1CCCCC1` [cyclohexylamine] + c1ccccc1, the activity coefficient was found to be 6.43 ± 1.
As for `Cc1ccncc1` [4-methylpyridine] + CO, the activity coefficient came out at 1 ± 0.12.
The same measure for `CO` [methanol] + Cc1ccncc1: 0.68 ± 0.1.
The same measure for `CCCN(CCC)CCC` [tripropylamine] + CO: 8.79 ± 1.6; for `Cc1ccccn1` [2-methylpyridine] + CO: 0.75 ± 0.07.
The same measure for `CCCCN` [1-butanamine] + CO: 0.46 ± 0.07; for `Cc1cccnc1` [3-methylpyridine] + c1ccccc1: 0.96 ± 0.12.
In the case of `Cc1cccnc1` [3-methylpyridine] + CO, the activity coefficient turned out to be 0.82 ± 0.07.
The same measure for `CO` [methanol] + Cc1cccnc1: 0.94 ± 0.12; for `CCCN(CCC)CCC` [tripropylamine] + c1ccccc1: 2.79 ± 0.62.
The same measure for `CO` [methanol] + CC(C)(C)N: 0.29 ± 0.05.
The same measure for `CO` [methanol] + C1CCNCC1: 0.43 ± 0.03.
Regarding `NC1CCCCC1` [cyclohexylamine] + CO, the activity coefficient stood at 4.81 ± 0.47.
The same measure for `CO` [methanol] + CCNCC: 0.51 ± 0.03; for `CO` [methanol] + Cc1ccccn1: 0.79 ± 0.1.
The same measure for `c1ccncc1` [pyridine] + CO: 1.2 ± 0.19; for `CCCN(CCC)CCC` [tripropylamine] + CCCCCCCCCCCCCCCC: 1.01.
The same measure for `CO` [methanol] + CCCCCCN: 0.38 ± 0.05.
`CCCNCCC` [dipropylamine] + CO: the activity coefficient is 0.91 ± 0.12.
The same measure for `CCN(CC)CC` [triethylamine] + c1ccccc1: 1.28 ± 0.1; for `CCCCCCN` [1-hexanamine] + CO: 13.7 ± 2.3; for `CC(C)(C)N` [2-methyl-2-propanamine] + CO: 0.25 ± 0.05.
The same measure for `CCCNCCC` [dipropylamine] + c1ccccc1: 1.48 ± 0.15; for `CO` [methanol] + Cc1cccc(C)n1: 0.61 ± 0.1.
The same measure for `CCC(C)N` (centres undefined) [2-butanamine] + c1ccccc1: 1.15 ± 0.17; for `CCNCC` [diethylamine] + CO: 0.33 ± 0.05.
Take `CCC(C)N` (centres undefined) [2-butanamine] + CO: the activity coefficient amounted to 0.75 ± 0.1.
The same measure for `CO` [methanol] + CCCCN: 0.35 ± 0.07; for `Cc1cccc(C)n1` [2,6-dimethylpyridine] + CO: 0.94 ± 0.07.
The same measure for `CC(C)(C)N` [2-methyl-2-propanamine] + c1ccccc1: 1.32 ± 0.21.
The same measure for `CO` [methanol] + CCC(C)N: 0.38 ± 0.05; for `CCCCCCN` [1-hexanamine] + c1ccccc1: 16.2 ± 3.1.
On to `CO` [methanol] + NC1CCCCC1, for which the activity coefficient was 0.33 ± 0.03.
The same measure for `CO` [methanol] + CCCNCCC: 0.69 ± 0.05.
